What was measured:
[1] = biological target: T1, xanthine oxidase (XOD, from bovine milk) (Bos taurus, UniProt P80457); test: intrinsic fluorescence quenching; type: binding; settings: 0.2 M PBS pH 7.5; 298, 304 and 310 K; static quenching
[2] = biological target: T1, xanthine oxidase (XOD, from bovine milk); test: xanthine oxidation, absorbance at […] nm, microplate; type: biochemical

T1 sequence (P80457 2-1332): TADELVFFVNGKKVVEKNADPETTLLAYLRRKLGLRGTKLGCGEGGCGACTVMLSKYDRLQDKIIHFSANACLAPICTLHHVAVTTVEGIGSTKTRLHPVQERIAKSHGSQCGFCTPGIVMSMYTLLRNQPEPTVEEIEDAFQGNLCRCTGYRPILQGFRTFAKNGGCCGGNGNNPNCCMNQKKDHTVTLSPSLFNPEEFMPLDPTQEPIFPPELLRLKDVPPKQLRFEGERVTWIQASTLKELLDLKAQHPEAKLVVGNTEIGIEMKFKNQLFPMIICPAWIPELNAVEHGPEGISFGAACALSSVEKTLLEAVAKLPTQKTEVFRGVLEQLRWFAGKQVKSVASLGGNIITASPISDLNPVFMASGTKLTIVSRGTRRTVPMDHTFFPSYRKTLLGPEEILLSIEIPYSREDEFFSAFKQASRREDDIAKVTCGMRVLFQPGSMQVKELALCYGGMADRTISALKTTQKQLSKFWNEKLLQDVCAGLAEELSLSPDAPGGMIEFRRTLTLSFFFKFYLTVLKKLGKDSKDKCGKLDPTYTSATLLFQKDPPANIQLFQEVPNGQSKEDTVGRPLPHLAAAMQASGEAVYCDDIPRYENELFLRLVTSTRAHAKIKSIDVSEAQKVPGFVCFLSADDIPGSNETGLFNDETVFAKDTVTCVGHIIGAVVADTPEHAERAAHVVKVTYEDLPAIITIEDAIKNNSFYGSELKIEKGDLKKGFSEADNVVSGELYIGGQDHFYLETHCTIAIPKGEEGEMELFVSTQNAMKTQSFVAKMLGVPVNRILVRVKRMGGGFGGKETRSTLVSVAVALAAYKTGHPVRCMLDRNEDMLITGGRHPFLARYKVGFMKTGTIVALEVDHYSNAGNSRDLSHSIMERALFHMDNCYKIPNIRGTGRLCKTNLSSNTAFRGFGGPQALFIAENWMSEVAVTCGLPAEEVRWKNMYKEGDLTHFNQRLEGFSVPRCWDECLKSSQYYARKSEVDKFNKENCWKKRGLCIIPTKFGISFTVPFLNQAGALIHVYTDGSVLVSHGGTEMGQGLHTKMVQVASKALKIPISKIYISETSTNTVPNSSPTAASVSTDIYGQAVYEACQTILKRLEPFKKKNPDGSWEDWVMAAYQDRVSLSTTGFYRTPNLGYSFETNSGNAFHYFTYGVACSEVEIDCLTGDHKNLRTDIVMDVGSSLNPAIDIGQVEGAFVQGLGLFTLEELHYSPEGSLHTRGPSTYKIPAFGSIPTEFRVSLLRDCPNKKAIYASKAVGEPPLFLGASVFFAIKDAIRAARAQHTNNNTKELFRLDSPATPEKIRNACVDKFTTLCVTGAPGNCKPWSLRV

IC50 [2] [µM] | SMILES | intrinsic fluorescence quenching (Stern-Volmer), excitation 280 nm [1]
1240 ± 20 | CC(=O)c1c(O)cccc1O [2,6-Dihydroxyacetophenone] | fluorescence quenching mechanism of DHAP, 4-HPEA and HBA for XOD were a single type
24500 ± 800 | OCCc1ccc(O)cc1 [4-Hydroxyphenethyl alcohol] | fluorescence quenching mechanism of DHAP, 4-HPEA and HBA for XOD were a single type

SMILES | IC50 [2] [µM] | intrinsic fluorescence quenching (Stern-Volmer), excitation 280 nm [1]
O=Cc1ccc(O)cc1 [4-Hydroxybenzaldehyde] | 2.67 ± 0.9 | fluorescence quenching mechanism of DHAP, 4-HPEA and HBA for XOD were a single type
